According to ChEMBL document CHEMBL4382233, “Discovery of novel arylethenesulfonyl fluorides as potential candidates against methicillin-resistant of Staphylococcus aureus (MRSA) for overcoming multidrug resistance of bacterial infections” (2019):
≈ marks a conversion by molar mass, not a printed value.

How the values were obtained:
Type in all cases: functional
Staphylococcus aureus [1] = assay: Antibacterial activity against methicillin-resistant Staphylococcus aureus assessed as zone of inhibition at 400 ng/mL after 24 hrs by agar disc diffusion method; conditions: read-out: IZ
Staphylococcus aureus [2] = assay: Antibacterial activity against methicillin-resistant Staphylococcus aureus assessed as zone of inhibition at 200 ng/mL after 24 hrs by agar disc diffusion method; conditions: read-out: IZ
[3] = tested on: Staphylococcus epidermidis; assay: Antibacterial activity against methicillin-resistant Staphylococcus epidermidis assessed as zone of inhibition at 20 ug/mL after 24 hrs by agar disc diffusion method; conditions: read-out: IZ
[4] = tested on: Staphylococcus haemolyticus; assay: Antibacterial activity against methicillin-resistant Staphylococcus haemolyticus after overnight incubation by micro broth dilution analysis
[5] = tested on: Staphylococcus epidermidis; assay: Antibacterial activity against methicillin-resistant Staphylococcus epidermidis after overnight incubation by micro broth dilution analysis
Staphylococcus aureus [6] = assay: Antibacterial activity against methicillin-resistant Staphylococcus aureus assessed as zone of inhibition at 800 ng/mL after 24 hrs by agar disc diffusion method; conditions: read-out: IZ
[7] = tested on: Staphylococcus haemolyticus; assay: Antibacterial activity against methicillin-resistant Staphylococcus haemolyticus assessed as zone of inhibition at 50 ug/mL after 24 hrs by agar disc diffusion method; conditions: read-out: IZ
Staphylococcus aureus [8] = assay: Antibacterial activity against methicillin-resistant Staphylococcus aureus after overnight incubation by micro broth dilution analysis
Staphylococcus aureus [9] = assay: Antibacterial activity against methicillin-resistant Staphylococcus aureus assessed as zone of inhibition at 50 ug/mL after 24 hrs by agar disc diffusion method; conditions: read-out: IZ
[10] = tested on: Staphylococcus haemolyticus; assay: Antibacterial activity against methicillin-resistant Staphylococcus haemolyticus assessed as zone of inhibition at 800 ng/mL after 24 hrs by agar disc diffusion method; conditions: read-out: IZ
[11] = tested on: Staphylococcus haemolyticus; assay: Antibacterial activity against methicillin-resistant Staphylococcus haemolyticus assessed as zone of inhibition at 400 ng/mL after 24 hrs by agar disc diffusion method; conditions: read-out: IZ
[12] = tested on: Staphylococcus haemolyticus; assay: Antibacterial activity against methicillin-resistant Staphylococcus haemolyticus assessed as zone of inhibition at 200 ng/mL after 24 hrs by agar disc diffusion method; conditions: read-out: IZ

Structure (SMILES)	zone of inhibition at 0.4 µg/mL (Staphylococcus aureus [1]) [mm]	zone of inhibition at 0.2 µg/mL (Staphylococcus aureus [2]) [mm]	zone of inhibition at 20 µg/mL [3] [mm]	MIC99 [4] [µg/mL]	MIC99 [5] [µg/mL]	zone of inhibition at 0.8 µg/mL (Staphylococcus aureus [6]) [mm]	zone of inhibition at 50 µg/mL [7] [mm]	MIC99 (Staphylococcus aureus [8]) [µg/mL]	zone of inhibition at 50 µg/mL (Staphylococcus aureus [9]) [mm]	zone of inhibition at 0.8 µg/mL [10] [mm]	zone of inhibition at 0.4 µg/mL [11] [mm]	zone of inhibition at 0.2 µg/mL [12] [mm]
Cc1cccc(/C=C/S(=O)(=O)F)c1	5.2	4.3	3.5	0.812 (≈ 4.06 µM)	57.2 (≈ 286 µM)	6.2	12.2	0.844 (≈ 4.22 µM)	10.1	10.3	8.2	6.1
O=S(=O)(F)/C=C/c1cccc(C(F)(F)F)c1	5.4	4.1	4.1	43.2 (≈ 170 µM)	40.1 (≈ 158 µM)	7.7	4.2	0.836 (≈ 3.29 µM)	10.1			
COc1cc(/C=C/S(=O)(=O)F)cc(OC)c1	13.1	1.2	5.3	50 (≈ 203 µM)	57.1 (≈ 232 µM)	15.1	4.5	0.81 (≈ 3.29 µM)	18.1			
O=S(=O)(F)/C=C/c1cc2ccccc2s1	6.3	4.4	5.2	63.1 (≈ 261 µM)	70.2 (≈ 290 µM)	8.5	4.5	55 (≈ 227 µM)	8.2			
CC(=O)c1ccc(/C=C/S(=O)(=O)F)cc1	8.2	6.2	6.5	0.84 (≈ 3.68 µM)	54.2 (≈ 237 µM)	10.2	7.2	0.822 (≈ 3.6 µM)	14.1	6.1	5.2	3.3
O=S(=O)(F)/C=C/c1cc(C(F)(F)F)cc(C(F)(F)F)c1	7.1	6.2	6.5	18.1 (≈ 56.3 µM)	60.2 (≈ 187 µM)	10.3	7.1	0.814 (≈ 2.53 µM)	14.4	4.2	3.1	0
